Results published in publication PMC6908673, “Tuning the in vitro sensing and signaling properties of cyanobacterial PII protein by mutation of key residues” (Scientific Reports, 2019).

Legend:
PII-PipX complex = target: T1, PII-PipX complex (Synechococcus elongatus, UniProt P0A3F4); test: indirect SPR, His6-PipX on Ni-NTA chip; assay type: binding; conditions: 10 mM Hepes pH 7.5, 150 mM NaCl, 1 mM MgCl2, 25 °C
T1 construct: gene glnB; Strep-tagged PII trimer pre-incubated with His6-tagged PipX; three PipX per PII trimer; both from E. coli
T1 sequence (P0A3F4 whole entry): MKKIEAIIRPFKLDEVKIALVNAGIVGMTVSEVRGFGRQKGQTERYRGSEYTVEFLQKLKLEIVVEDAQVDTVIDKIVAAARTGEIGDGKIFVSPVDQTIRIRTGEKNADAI
T1 sequence (Q7X386 1-89 partner): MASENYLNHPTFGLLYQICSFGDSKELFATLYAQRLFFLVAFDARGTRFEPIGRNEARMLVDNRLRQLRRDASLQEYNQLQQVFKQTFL

SeNAGK + SePII = target: T2, SeNAGK + SePII (Synechococcus elongatus, UniProt Q6V1L5); test: coupled NAGK assay (pyruvate kinase/lactate dehydrogenase, NADH oxidation); assay type: biochemical; conditions: 25 µM arginine; 2-OG acts on PII site
T2 construct: gene argB; His6-tagged SeNAGK hexamer mixed with Strep-tagged SePII; two PII trimers sandwich one NAGK hexamer (WT); both from E. coli; with Nitrogen regulatory protein P-II
T2 sequence (P0A3F4 whole entry partner, one chain of several): as the sequence (P0A3F4 whole entry) above

SeNAGK = target: T3, SeNAGK (Synechococcus elongatus, UniProt Q6V1L5); test: as above; assay type: biochemical
T3 construct: gene argB; His6-tagged, E. coli BL21(DE3), His-Trap; hexamer, about 194 kDa
T3 sequence (Q6V1L5 1-301): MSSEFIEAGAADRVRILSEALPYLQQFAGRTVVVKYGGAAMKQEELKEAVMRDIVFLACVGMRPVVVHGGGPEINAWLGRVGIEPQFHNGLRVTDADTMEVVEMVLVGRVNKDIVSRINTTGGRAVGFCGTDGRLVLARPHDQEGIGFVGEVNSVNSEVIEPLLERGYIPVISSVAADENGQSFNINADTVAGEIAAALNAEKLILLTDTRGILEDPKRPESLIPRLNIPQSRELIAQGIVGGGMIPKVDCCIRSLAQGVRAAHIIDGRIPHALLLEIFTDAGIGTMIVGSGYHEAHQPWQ
Excerpt: coupled NAGK assay (pyruvate kinase/lactate dehydrogenase, NADH oxidation) on SeNAGK | Arginine feedback inhibition of non-complexed SeNAGK occurred with a half maximal inhibitory concentration (IC50) of […]

[1] = substrate: CC(=O)N[C@@H](CCC(=O)O)C(=O)O; test: as above; assay type: biochemical, Synechococcus elongatus; conditions: without PII; without arginine
Excerpt: coupled NAGK assay (pyruvate kinase/lactate dehydrogenase, NADH oxidation) on SeNAGK

[2] = substrate: CC(=O)N[C@@H](CCC(=O)O)C(=O)O; test: as above; assay type: biochemical, Synechococcus elongatus; conditions: with SePII (WT); without arginine
Excerpt: coupled NAGK assay (pyruvate kinase/lactate dehydrogenase, NADH oxidation) on SeNAGK + SePII

[3] = target: the molecule itself; test: SEC-MALS; PII mixed with NAGK (molar ratio 3:1 PII trimers to NAGK hexamers) 10 min at room temperature; Superose 6 Increase 10/300 GL; 100 mM Tris-HCl pH 7.8, 300 mM NaCl, 2 mM MgCl2, 2% glycerol; eluted fractions checked by SDS-PAGE

O=C(O)CCC(=O)C(=O)O [2-OG]
indirect SPR, His6-PipX on Ni-NTA chip (PII-PipX complex; 1 mM 2-OG with 1 mM ATP): 2-OG in presence of ATP impaired PipX-PII (WT) complex formation | coupled NAGK assay (pyruvate kinase/lactate dehydrogenase, NADH oxidation) (SeNAGK + SePII): complex of SeNAGK-SePII (WT) showed the typical inhibitory effect upon 2-OG addition

Nc1ncnc2c1ncn2[C@@H]1O[C@H](COP(=O)(O)OP(=O)(O)O)[C@@H](O)[C@H]1O [ADP]
indirect SPR, His6-PipX on Ni-NTA chip (PII-PipX complex; 1 mM ADP): strong positive effect of ADP on the interaction of PII (WT) with PipX

N=C(N)NCCC[C@H](N)C(=O)O [arginine]
IC50 (SeNAGK): 11 µM

B1: SeNAGK (Synechococcus elongatus PCC 7942 = FACHB-805) (protein)
chain: T3 sequence (Q6V1L5 1-301)
notes: His6-tagged, E. coli BL21(DE3), His-Trap; hexamer, about 194 kDa
Km [1]: 5.1 ± 0.9 mM

B2: SeNAGK + SePII (Synechococcus elongatus PCC 7942 = FACHB-805) (protein)
chain: T3 sequence (Q6V1L5 1-301)
notes: His6-tagged SeNAGK hexamer mixed with Strep-tagged SePII; two PII trimers sandwich one NAGK hexamer (WT); both from E. coli; with Nitrogen regulatory protein P-II
Km [2]: 2.9 ± 0.6 mM

B3: SeNAGK, N-acetyl-L-glutamate kinase from S. elongatus PCC7942, His6-tagged (enzyme)
chain: T3 sequence (Q6V1L5 1-301)
notes: N-acetyl-L-glutamate kinase (NAGK) of Synechococcus elongatus PCC 7942; hexamer; also called His6-NAGK
stoichiometry N [3]: 6
